# Values quoted from earlier work in paper PMC6959220, “Glycofullerenes as non-receptor tyrosine kinase inhibitors- towards better nanotherapeutics for pancreatic cancer treatment” (Scientific Reports, 2020).
# Test system: NHDF
# Set-up: method as in PMID 30562697
structure (smiles),measurement,value
"Cc1nc(Nc2ncc(C(=O)Nc3c(C)cccc3Cl)s2)cc(N2CCN(CCO)CC2)n1 [Dasatinib, dasatinib]",cytotoxic effects on a normal cell line,cytotoxic effects
